Values after ≈ are worked out from the molar mass of the structure shown. Read-outs that look alike come from different tables or passages of the source.
Key:
[1] = Oral bioavailability PK in dog; assay type: in vivo; conditions: dog (Beagle), oral gavage, solution vehicle 5% ethanol, 20% propylene glycol, 75% water; based on exposure of Intermediate 5 in plasma
Method: Oral dose (suspension and solution vehicle) of the compound being tested was administered via gavage in rat (Sprague Dawley) and dog (Beagle). Serial blood samples were collected via jugular vein into pre-chilled K2EDTA with 2 mM dichlorvos (final concentration) for up to 168h. Whole blood was processed into plasma by centrifuge (3000 rpm for 10 minutes at 5C) within 30 minutes of collection.
Plasma samples were analyzed by direct protein precipitation with acetonitrile and further dilution with water before injecting onto Sciex API 5500 LC/MS/MS system for analysis.
AUC was calculated as Area under the plasma concentration vs. time curve from 0 h to infinity.
The solution vehicles used were 1) 5% ethanol, 20% propylene glycol, and 75% water and 2) 30% 10 mM HCl, 5% ethanol, 45% polyethylene glycol 300, and 20% propylene glycol.

[2] = physchem; conditions: 25 °C, thermodynamic from solid
[3] = 0.1N HCl, 1.0% DMSO, 24-hour incubation at ambient temperature, maximum theoretical 100 μM, first value of the cell
[4] = 1×PBS buffer (pH 7.4), 1.0% DMSO, 24-hour incubation at ambient temperature, maximum theoretical 100 μM, second value of the cell

SMILES	pH 2 solubility [3] [μM]	pH 7 solubility [4] [μM]	Dog F % (solution) [1] [%]	solubility ([2]; fassif) [µg/mL]	solubility ([2]; fessif) [µg/mL]	pH 2 solubility (pH 2)	pH 7 solubility (pH 7.4)
CC(C)(C#Cc1ccc(-c2ccc(Cl)c3c(NS(C)(=O)=O)nn(CC(F)(F)F)c23)c([C@H](Cc2cc(F)cc(F)c2)NC(=O)Cn2nc(C(F)(F)F)c3c2C(F)(F)[C@@H]2C[C@H]32)n1)S(C)(=O)=O [Intermediate 5, N—((S)-1-(3-(4-chloro-3-(methylsulfonamido)-1-(2,2,2-trifluoroethyl)-1H-indazol-7-yl)-6-(3-methyl-3-(methylsulfonyl)but-1-yn-1-yl)pyridin-2-yl)-2-(3,5-difluorophenyl)ethyl)-2-((3bS,4aR)-5,5-difluoro-3-(trifluoromethyl)-3b,4,4a,5-tetrahydro-1H-cyclopropa[3,4]cyclopenta[1,2-c]pyrazol-1-yl)acetamide, reference compound]	0.11	0.32	16				
CN(CCOC(=O)N(c1nn(CC(F)(F)F)c2c(-c3ccc(C#CC(C)(C)S(C)(=O)=O)nc3[C@H](Cc3cc(F)cc(F)c3)NC(=O)Cn3nc(C(F)(F)F)c4c3C(F)(F)[C@@H]3C[C@H]43)ccc(Cl)c12)S(C)(=O)=O)C(=O)OCOP(=O)(O)O [Compound 133, (phosphonooxy)methyl (2-(((4-chloro-7-(2-((S)-1-(2-((3bS,4aR)-5,5-difluoro-3-(trifluoromethyl)-3b,4,4a,5-tetrahydro-1H-cyclopropa[3,4]cyclopenta[1,2-c]pyrazol-1-yl)acetamido)-2-(3,5-difluorophenyl)ethyl)-6-(3-methyl-3-(methylsulfonyl)but-1-yn-1-yl)pyridin-3-yl)-1-(2,2,2-trifluoroethyl)-1H-indazol-3-yl)(methylsulfonyl)carbamoyl)oxy)ethyl)(methyl)carbamate]	1	81		194 (≈ 159 µM)			
CC(C)(C#Cc1ccc(-c2ccc(Cl)c3c(N(C(=O)O[C@H](CNC(=O)OCOP(=O)(O)O)CC(=O)O)S(C)(=O)=O)nn(CC(F)(F)F)c23)c([C@H](Cc2cc(F)cc(F)c2)NC(=O)Cn2nc(C(F)(F)F)c3c2C(F)(F)[C@@H]2C[C@H]32)n1)S(C)(=O)=O [Compound 136, (S)-3-(((4-chloro-7-(2-((S)-1-(2-((3bS,4aR)-5,5-difluoro-3-(trifluoromethyl)-3b,4,4a,5-tetrahydro-1H-cyclopropa[3,4]cyclopenta[1,2-c]pyrazol-1-yl)acetamido)-2-(3,5-difluorophenyl)ethyl)-6-(3-methyl-3-(methylsulfonyl)but-1-yn-1-yl)pyridin-3-yl)-1-(2,2,2-trifluoroethyl)-1H-indazol-3-yl)(methylsulfonyl)carbamoyl)oxy)-4-((((phosphonooxy)methoxy)carbonyl)amino)butanoic acid]				1490 (≈ 1180 µM)	2910 (≈ 2300 µM)	3/57 μM	3/57 μM
CC(C)(C#Cc1ccc(-c2ccc(Cl)c3c(N(C(=O)NCCP(=O)(O)O)S(C)(=O)=O)nn(CC(F)(F)F)c23)c([C@H](Cc2cc(F)cc(F)c2)NC(=O)Cn2nc(C(F)(F)F)c3c2C(F)(F)[C@@H]2C[C@H]32)n1)S(C)(=O)=O [Compound 54, (2-(3-(4-chloro-7-(2-((S)-1-(2-((3bS,4aR)-5,5-difluoro-3-(trifluoromethyl)-3b,4,4a,5-tetrahydro-1H-cyclopropa[3,4]cyclopenta[1,2-c]pyrazol-1-yl)acetamido)-2-(3,5-difluorophenyl)ethyl)-6-(3-methyl-3-(methylsulfonyl)but-1-yn-1-yl)pyridin-3-yl)-1-(2,2,2-trifluoroethyl)-1H-indazol-3-yl)-3-(methylsulfonyl)ureido)ethyl)phosphonic acid]	1	41		416 (≈ 372 µM)			
CN(CC(=O)OCOP(=O)(O)O)C(=O)N(c1nn(CC(F)(F)F)c2c(-c3ccc(C#CC(C)(C)S(C)(=O)=O)nc3[C@H](Cc3cc(F)cc(F)c3)NC(=O)Cn3nc(C(F)(F)F)c4c3C(F)(F)[C@@H]3C[C@H]43)ccc(Cl)c12)S(C)(=O)=O [Compound 84, (phosphonooxy)methyl N-((4-chloro-7-(2-((S)-1-(2-((3bS,4aR)-5,5-difluoro-3-(trifluoromethyl)-3b,4,4a,5-tetrahydro-1H-cyclopropa[3,4]cyclopenta[1,2-c]pyrazol-1-yl)acetamido)-2-(3,5-difluorophenyl)ethyl)-6-(3-methyl-3-(methylsulfonyl)but-1-yn-1-yl)pyridin-3-yl)-1-(2,2,2-trifluoroethyl)-1H-indazol-3-yl)(methylsulfonyl)carbamoyl)-N-methylglycinate]	5	16		154 (≈ 129 µM)			
CC(C)(C#Cc1ccc(-c2ccc(Cl)c3c(N(C(=O)OCCN(CCC(=O)O)C(=O)OCOP(=O)(O)O)S(C)(=O)=O)nn(CC(F)(F)F)c23)c([C@H](Cc2cc(F)cc(F)c2)NC(=O)Cn2nc(C(F)(F)F)c3c2C(F)(F)[C@@H]2C[C@H]32)n1)S(C)(=O)=O [Compound 135, 3-((2-(((4-chloro-7-(2-((S)-1-(2-((3bS,4aR)-5,5-difluoro-3-(trifluoromethyl)-3b,4,4a,5-tetrahydro-1H-cyclopropa[3,4]cyclopenta[1,2-c]pyrazol-1-yl)acetamido)-2-(3,5-difluorophenyl)ethyl)-6-(3-methyl-3-(methylsulfonyl)but-1-yn-1-yl)pyridin-3-yl)-1-(2,2,2-trifluoroethyl)-1H-indazol-3-yl)(methylsulfonyl)carbamoyl)oxy)ethyl)(((phosphonooxy)methoxy)carbonyl)amino)propa noic acid]	1	100		1290 (≈ 1010 µM)			
CN(Cc1ccccc1OP(=O)(O)O)C(=O)N(c1nn(CC(F)(F)F)c2c(-c3ccc(C#CC(C)(C)S(C)(=O)=O)nc3[C@H](Cc3cc(F)cc(F)c3)NC(=O)Cn3nc(C(F)(F)F)c4c3C(F)(F)[C@@H]3C[C@H]43)ccc(Cl)c12)S(C)(=O)=O [Compound 67, 2-((3-(4-chloro-7-(2-((S)-1-(2-((3bS,4aR)-5,5-difluoro-3-(trifluoromethyl)-3b,4,4a,5-tetrahydro-1H-cyclopropa[3,4]cyclopenta[1,2-c]pyrazol-1-yl)acetamido)-2-(3,5-difluorophenyl)ethyl)-6-(3-methyl-3-(methylsulfonyl)but-1-yn-1-yl)pyridin-3-yl)-1-(2,2,2-trifluoroethyl)-1H-indazol-3-yl)-1-methyl-3-(methylsulfonyl)ureido)methyl)phenyl dihydrogen phosphate]				536	707	2/79 μM	2/79 μM
CC(C)(C#Cc1ccc(-c2ccc(Cl)c3c(N(C(=O)OCCN(CC(=O)O)C(=O)OCOP(=O)(O)O)S(C)(=O)=O)nn(CC(F)(F)F)c23)c([C@H](Cc2cc(F)cc(F)c2)NC(=O)Cn2nc(C(F)(F)F)c3c2C(F)(F)[C@@H]2C[C@H]32)n1)S(C)(=O)=O [Compound 134]	1	100		2640 (≈ 2080 µM)			
C[C@@H](C(=O)O)N(CCOC(=O)N(c1nn(CC(F)(F)F)c2c(-c3ccc(C#CC(C)(C)S(C)(=O)=O)nc3[C@H](Cc3cc(F)cc(F)c3)NC(=O)Cn3nc(C(F)(F)F)c4c3C(F)(F)[C@@H]3C[C@H]43)ccc(Cl)c12)S(C)(=O)=O)C(=O)OCOP(=O)(O)O [Compound 132, N-(2-(((4-chloro-7-(2-((S)-1-(2-((3bS,4aR)-5,5-difluoro-3-(trifluoromethyl)-3b,4,4a,5-tetrahydro-1H-cyclopropa[3,4]cyclopenta[1,2-c]pyrazol-1-yl)acetamido)-2-(3,5-difluorophenyl)ethyl)-6-(3-methyl-3-(methylsulfonyl)but-1-yn-1-yl)pyridin-3-yl)-1-(2,2,2-trifluoroethyl)-1H-indazol-3-yl)(methylsulfonyl)carbamoyl)oxy)ethyl)-N-(((phosphonooxy)methoxy)carbonyl)-L-alanine]	1	79		1630 (≈ 1270 µM)			
